# Data: patent US20230257480A1, “ENHANCING BLOOD-BRAIN BARRIER DRUG TRANSPORT BY TARGETING ENDOGENOUS REGULATORS” (THE BOARD OF TRUSTEES OF THE LELAND STANFORD JUNIOR …, priority 2019, published 2023)
# Columns and labels:
# [1] = tested on: paracellular tight junctions; assay: 3 kDa dextran tracer uptake probing paracellular permeability after ALPL inhibitor treatment; format: in vivo; conditions: young and aged mice, vs vehicle
# Description: FIGS. 14A-14D are graphs illustrating flow cytometry quantification of brain endothelial cell uptake of plasma from young mice (3 m.o.) (FIG. 14A), plasma from aged mice (22 m.o.) (FIG. 14B), human holo-transferrin (hu-Tf) from aged mice (FIG. 14C), or transferrin receptor antibody (TfR Ab) from aged mice (FIG. 14D) treated with vehicle (grey) or anti-ALPL (green) via IP injections twice daily for three days, as assessed by % of BECs that are tracer^+ and relative MFI of tracer^+ BECs (for plasma, n=4; for hu-Tf, n=6 vehicle, n=5 anti-ALPL; for TfR Ab, n=9, two-sided t-test, mean+/−s.e.m.). Tracer refers to plasma, hu-Tf, or TfR Ab. FIG. 14E includes representative images of hu-Tf^+ neurons detected in the cortex of mice treated with ALPL inhibitor. Scale bar=40 microns. FIG. 14F includes graphs showing circulating human holo-transferrin and transferrin receptor antibody in blood plasma upon time of sacrifice to control for and ensure no differences in injected amount (for hu-Tf+, n=6 vehicle, n=5 anti-ALPL; for TfR Ab, n=9, two-sided t-test, mean+/−s.e.m.). […] FIG. 14H includes graphs illustrating flow cytometry quantification of brain endothelial cell and brain parenchymal cell uptake of 3 kDa dextran tracer, which probes for disruptions in paracellular permeability, in young mice (3 m.o.) and aged mice (22 m.o.) (n=6 vehicle, n=5 anti-ALPL, two-sided t-test, mean+/−s.e.m.). […]
# [2] = tested on: brain endothelial cells; assay: Flow cytometry of brain endothelial cell uptake of tracer after ALPL inhibitor treatment; format: in vivo, mice; conditions: Atto 647N-labeled plasma, vs vehicle
# Description: FIGS. 14A-14D are graphs illustrating flow cytometry quantification of brain endothelial cell uptake of plasma from young mice (3 m.o.) (FIG. 14A), plasma from aged mice (22 m.o.) (FIG. 14B), human holo-transferrin (hu-Tf) from aged mice (FIG. 14C), or transferrin receptor antibody (TfR Ab) from aged mice (FIG. 14D) treated with vehicle (grey) or anti-ALPL (green) via IP injections twice daily for three days, as assessed by % of BECs that are tracer^+ and relative MFI of tracer^+ BECs (for plasma, n=4; for hu-Tf, n=6 vehicle, n=5 anti-ALPL; for TfR Ab, n=9, two-sided t-test, mean+/−s.e.m.). Tracer refers to plasma, hu-Tf, or TfR Ab. FIG. 14E includes representative images of hu-Tf^+ neurons detected in the cortex of mice treated with ALPL inhibitor. Scale bar=40 microns. […] FIG. 14H includes graphs illustrating flow cytometry quantification of brain endothelial cell and brain parenchymal cell uptake of 3 kDa dextran tracer, which probes for disruptions in paracellular permeability, in young mice (3 m.o.) and aged mice (22 m.o.) (n=6 vehicle, n=5 anti-ALPL, two-sided t-test, mean+/−s.e.m.).
# CNS cell isolation adopted previously described methods42,139,140. […] For analysis of plasma uptake, at least 1,000 cells of each population of interest were analyzed per sample. […]
compound,measurement,setting,value
"COc1ccc(OC)c(S(=O)(=O)Nc2cnc3ccccc3c2)c1 [ALPL inhibitor, 2,5-Dimethoxy-N-(quinolin-3-yl)benzenesulfonamide]",paracellular tight junctions,[1],did not perturb vascular morphology or compromise
same,"plasma uptake in brain endothelial cells, aged mice",[2]; aged (22 m.o.) mice,increased
same,"plasma uptake in brain endothelial cells, young mice",[2]; young (3 m.o.) mice,increased
